Experimental findings from patent publication US6410596B1 (Insmed Incorporated, priority 2000, dated 2002) are described below.

The test system of series [1] is C57BL/ks diabetic (db/db) mice. As to the kind of experiment: Plasma glucose lowering in diabetic db/db mice. In kind it is in vivo. The settings on record: for Change in Glucose 6 H: 125 mg/kg q.d. oral (0, 24, 48 h), 6 h after initial dose, Table 8 experiment (FIG. 5). The protocol: (§1) Genetically altered obese diabetic mice (designated C57BL/ks diabetic or db/db) were purchased from the Jackson Laboratory (Bar Harbor, Me., USA), and served as experimental animals. Male animals between the ages of 8-9 weeks were employed in the studies described here. Animals were housed (4 mice/cage) under standard laboratory conditions at 22° C. and 50% relative humidity, and were maintained on a diet of Purina rodent chow and water ad libitum. Prior to treatment, blood was collected from the tail vein of each a nimal. Mice that had plasma glucose levels between 350 and 600 mg/dL were used. Each treatment group consisted of eight mice that were distributed so that the mean glucose levels were equivalent in each group at the start of the study. Db/db mice received, orally by gavage: the experimental compound administered at 62.5, 125, or 250 mg/kg/day (unless otherwise noted), or metformin administered at […] for 1-3 days, Test compounds were delivered in a liquid vehicle containing 0.25% (w/v) carboxymethyl-cellulose, 1% (v/v) Tween 60® (polyoxyethylene sorbitan monosterate), and up to 10% (v/v) dimethyl sulfoxide (DMSO) in a volume of 10 ml/kg. Blood was sampled from the tail vein at three hours, six, eight, twenty-four, and thirty hours post-administration (the first administration) of the particular compound in non-fasted conditions. Experiments 3-5 also sampled blood at fifty-four hours post-administration (the first administration) of the particular compound in non-fasted conditions. Blood samples were analyzed for plasma glucose levels. Individual body weights and mean food consumption (each cage) were also measured daily.
The isolated test substances were prepared as described previously (vide supra). Metformin (1,1-dimethylbiguanide), carboxymethyl cellulose and Tween 60 were purchased from Sigma Chemical Co. (St. Louis, Mo., USA; catalog #'s D-5035, C-4888, and p-1629, respectively). Plasma glucose levels were determined […] using glucose oxidase (Sigma Chemical Co.; Sigma catalog #315). Significant differences between groups (comparing compound-treated to vehicle-treated) were evaluated using analysis of variance and Fisher's post-hoc test. […]

Series [2] can be described thus: Body weights and food consumption in diabetic db/db mice. In kind it is in vivo. The method, then:
as §1

[3] abbreviates: 125 mg/kg oral, Table 10 experiment.
Where [4] appears, read: 125 mg/kg, Table 10/11 experiment.
[5] abbreviates: 125 mg/kg oral, Table 8 experiment.

Take “5-hydroxy-3-methoxy-2-(3-methyl-2-butenyl)stilbene [Compound A]”: the “mean glucose levels declined from the baseline values” in series [1] (decline, 62.5 mg/kg, 30 h after initial dosing, Tables 4/6 experiment) is on record as 40.7 mg/dL; in series [1] (decline, 125 mg/kg, 30 h after initial dosing, Tables 4/6 experiment) it was 69.7 mg/dL; in series [1] (decline, 250 mg/kg (also metformin 250 mg/kg), 30 h after initial dosing, Tables 4/6 experiment), 221.4 mg/dL.

As for `COc1cc(/C=C/c2ccccc2)c(C(=O)O)c(O)c1CC=C(C)C` [Compound C, 3-hydroxy-4-(3-methyl-2-butenyl)-5-methoxystilbene-2-carboxylic acid], the “effect on food intake or body weight” value in series [2] (62.5 mg/kg, 125 mg/kg, and 250 mg/kg, Tables 4/6 experiment) was “absence of any significantly adverse effect on food intake or body weight”; in series [2] (250 mg/kg, FIG. 2 experiment), “absence of any significantly adverse effect on food intake or body weight”. In addition, the “food intake versus normal food intake range (5-6 g/day/mouse)” value in series [2] (250 mg/kg, FIG. 2 experiment) is “less than that of the normal food intake range”; in series [2] (250 mg/kg, Tables 4/6 experiment), “less than that of the normal food intake range”. Besides, the “hypoglycemic effect relative to vehicle” value in series [1] (250 mg/kg oral, FIG. 2 experiment) was “statistically significant reduction in plasma glucose”; in series [1] (62.5, 125, and 250 mg/kg oral, Tables 4/6 experiment), “statistically significant reduction in plasma glucose”. For the same molecule, in series [1] (decline, 125 mg/kg, 54 h after initial dosing, Tables 4/6 experiment), the “mean glucose levels declined from the baseline value” was 60.4 mg/dL. The “mean glucose levels declined from the baseline values” in series [1] (decline, 250 mg/kg (also metformin 250 mg/kg), 54 h after initial dosing, Tables 4/6 experiment) was found to be 122.0 mg/dL.

In the case of `COc1cc(/C=C/c2ccccc2)cc(O)c1CC=C(C)C` [Compound D, 3-hydroxy-5-methoxy-4-(3-methyl-2-butenyl)stilbene], in series [2] (125 mg/kg, Table 11), the “Food Intake 0-48 h” value turned out to be 5.7 g/mouse, the “Body weight (mean) 0 h” value is 39.3 ± 0.6 g/mouse and the “Body weight (mean) 48 hr” value is reported as 39.7 ± 0.7 g/mouse. The “hypoglycemic effect relative to vehicle” value in series [1] (setting [3]) is given as “statistically significant reduction in plasma glucose”.

As to `COc1cc(O)cc(CCc2ccccc2)c1CC=C(C)C` [Compound E], the “Food Intake 0-48 h” value in series [2] (125 mg/kg, Table 11) was 5.7 g/mouse. For the same molecule, the “Body weight (mean) 0 h” value in series [2] (125 mg/kg, Table 11) was 39.6 ± 0.3 g/mouse. Also, the “Body weight (mean) 48 hr” value in series [2] (125 mg/kg, Table 11) is given as 40.2 ± 0.4 g/mouse. The “effect on food intake or body weight” value in series [2] (125 mg/kg, Table 8 experiment) was “absence of any significantly adverse effect on food intake or body weight”; in series [2] (setting [4]), “absence of any significantly adverse effect on food intake or body weight”. Further, the “hypoglycemic effect relative to vehicle” value in series [1] (setting [5]) and in series [1] (setting [3]) was “statistically significant reduction in plasma glucose” in each case. Also, the “Change in Glucose 6 H” value in series [1] is -2.1 mg/dL.

Consider `COc1cc(O)cc(CCc2ccccc2)c1CCC(C)C` [Compound F], for which, in series [2] (125 mg/kg, Table 11), the “Food Intake 0-48 h” value was 5.8 g/mouse, the “Body weight (mean) 0 h” value is given as 39.3 ± 0.8 g/mouse and the “Body weight (mean) 48 hr” value was 39.8 ± 0.8 g/mouse. The “hypoglycemic effect relative to vehicle” value in series [1] (setting [3]) is listed as “statistically significant reduction in plasma glucose”.

With `COc1cc(O)cc(CCc2ccccc2)c1` [Compound G, 3-hydroxy-5-methoxybibenzene], the “effect on food intake or body weight” value is listed as “absence of any significantly adverse effect on food intake or body weight” in series [2] (125 mg/kg, Table 8 experiment) and “absence of any significantly adverse effect on food intake or body weight” in series [2] (setting [4]). Besides, in series [1] (setting [5]), the “hypoglycemic effect relative to vehicle” value is “statistically significant reduction in plasma glucose”. Also, in series [1], the “Change in Glucose 6 H” value amounted to 35.0 mg/dL.

Consider `CN(C)C(=N)N=C(N)N` [Metformin, 1,1-dimethylbiguanide, reference compound], for which, in series [2] (250 mg/kg, Table 5), the “Food Intake 0-48 h” value was found to be 5.1 g/mouse, the “Body weight (mean) 0 h” value is 37.3 ± 0.7 g/mouse and the “Body weight (mean) 48 hr” value turned out to be 37.2 ± 0.6 g/mouse.
